Measured values published in patent US20250387363A1, “LIQUID EPINEPHRINE PRODRUG FORMULATIONS AND LIQUID EPINEPHRINE FORMULATIONS” (Insignis Therapeutics, Inc., priority 2024, published 2025).

Assays:
[1] = Cross study epinephrine PK comparison, L-dipivefrin HCl formulations vs EpiPen 0.3 mg; format: in vivo, human; details: oral formulations administered sublingually; Table 10.1
From the text: FIG. 5. […] Study period I and study period II refer to the two test periods described in example 7 which are separated by a 1 week washout period.

[2] = system: healthy adult human volunteers; assay: Cross study pharmacodynamic response comparison (SBP, DBP, PR change from baseline) vs EpiPen 0.3 mg; format: in vivo; details: sublingual liquid dosage form, 10 mg dipivefrin HCl, two hours postdose
[3] = rabbits; cited from earlier work

Compound | Epinephrine exposures compared to Epipen 0.3 mg [1] | Median SBP (Systolic Blood Pressure) change from baseline response compared to EpiPen 0.3 mg injection ([2]; FIG. 6) | Median DBP (Diastolic Blood Pressure) change from baseline response compared to EpiPen 0.3 mg injection ([2]; FIG. 7) | Median PR (Pulse Rate) change from baseline response compared to EpiPen 0.3 mg injection ([2]; FIG. 8) | PD response (SBP, DBP and PR change from baseline) compared to EpiPen 0.3 mg injection ([2]; FIGS. 6-8) | Sublingual dose giving systemic absorption equivalent to IM epinephrine [3]
CNC[C@H](O)c1ccc(OC(=O)C(C)(C)C)c(OC(=O)C(C)(C)C)c1.Cl [L-dipivefrin HCl, L-dipivefrin hydrochloride] | comparable | greater | greater | comparable or greater | comparable or greater | 
CNC[C@H](O)c1ccc(O)c(O)c1 [epinephrine, 4-[(1R)-1-hydroxy-2-(methylamino)ethyl]benzene-1,2-diol] |  |  |  |  |  | 40 mg
